Experimental data from patent US6203976A, “Methods of preparing compositions comprising chemicals capable of transcriptional modulation” (OSI Pharmaceuticals, Inc., priority 1994, dated 2001).

What was measured:
[1] = test system: human growth hormone (532) promoter; experiment: High-throughput luciferase reporter assay, human Growth Hormone promoter (Screen III); type: cell-based; conditions: 532 cells, 6 hours; for FOLD INDUCTION RELATIVE TO SOLVENT CONTROL, hGH: Screen III activators; for FOLD INHIBITION RELATIVE TO SOLVENT CONTROL, hGH: Screen III inhibitors
MMTV (M10) promoter = experiment: High-throughput luciferase reporter assay, MMTV promoter (Screen III); type: cell-based, mouse; conditions: M10 cells, 6 hours; for FOLD INDUCTION RELATIVE TO SOLVENT CONTROL, MMTV: Screen III activators; for FOLD INHIBITION RELATIVE TO SOLVENT CONTROL, MMTV: Screen III inhibitors
Procedure: pMluci and pSV2Neo, an antibiotic resistance plasmid (112), were co-transfected into NIH/3T3 mouse fibroblast cells using the calcium phosphate precipitation method (103) with a commercially available kit (Pharmacia, Piscataway N.J.). Two days later, cells were transferred to media containing 0.4 mg/ml G418 and were grown for an additional 10-14 days. G418-resistant clones were isolated by standard methods. Once sufficient cell numbers were obtained, clones were analyzed based on several criteria: constitutive luciferase production, induction of luciferase expression by dexamethasone (1 μm, Sigma, St. Louis, Mo.), satisfactory attachment to microtiter plates used in the high-throughput screen and acceptable standard deviation in multiple luciferase expression assays (see below for assay protocol). This analysis was carried out using the luciferase assay conditions described above. Of the clones which satisfied the above criteria for the high throuphput screen, one clone, M10, was selected for use.

[2] = test system: human G-CSF (G21) promoter; experiment: High-throughput luciferase reporter assay, G-CSF promoter (Screen III); conditions: for FOLD INDUCTION RELATIVE TO SOLVENT CONTROL, GCSF: Screen III activators; for FOLD INDUCTION RELATIVE TO SOLVENT CONTROL, GCSF / FOLD INHIBITION RELATIVE TO SOLVENT CONTROL, GCSF: G21 cells, 6 hours; for FOLD INHIBITION RELATIVE TO SOLVENT CONTROL, GCSF: Screen III inhibitors; for scored as positive in repeat assays, G-CSF: 48 independent luciferase assays performed on the same day

Row | Compound | FOLD INDUCTION RELATIVE TO SOLVENT CONTROL, hGH [1] [fold] | FOLD INDUCTION RELATIVE TO SOLVENT CONTROL, MMTV (MMTV (M10) promoter) [fold] | FOLD INDUCTION RELATIVE TO SOLVENT CONTROL, GCSF [2] [fold] | FOLD INHIBITION RELATIVE TO SOLVENT CONTROL, hGH [1] [fold] | FOLD INHIBITION RELATIVE TO SOLVENT CONTROL, MMTV (MMTV (M10) promoter) [fold] | FOLD INHIBITION RELATIVE TO SOLVENT CONTROL, GCSF [2] [fold] | scored as positive in repeat assays, G-CSF [2]
1 | Nc1ncnc2c1nc(Br)n2[C@@H]1O[C@H](CO)[C@@H](O)[C@H]1O [compound 1583] | 0.12 | 0.88 | 5.82 | – | – | – | –
2 | Cc1ccc(N)c(S(=O)(=O)O)c1 [compound 1376] | 0.04 | 1.32 | 6.37 | – | – | – | –
3 | O=C(c1ccc(O)c(O)c1)c1c(O)cc(O)cc1O [compound 660] | – | – | – | 0.34 | 1.04 | 10.0 | –
4 | CC1(C)[C@@H](C(=O)OCC(F)(F)C(F)(F)C(F)(F)C(F)(F)C(F)(F)C(F)F)CC[C@@]1(C)C(=O)OCC(F)(F)C(F)(F)C(F)(F)C(F)(F)C(F)(F)C(F)F [compound 1592] | 0.74 | 1.34 | 3.20 | – | – | – | –
5 | COc1cc2oc(=O)cc(CBr)c2cc1OC [compound 2064] | 1.10 | 2.53 | 0.82 | – | – | – | –
6 | Nc1ccc2c(c1)Cc1ccccc1-2 [compound 1316] | 1.39 | 2.33 | 0.74 | – | – | – | –
7 | CC(=O)c1c(C)cc(NC(C)(C)C)nc1NC(C)(C)C [compound 40] | 0.62 | 0.27 | 5.62 | – | – | – | –
8 | C(=Cc1ccccn1)c1ccccn1 [compound 1640] | – | – | – | 5.00 | 0.59 | 0.79 | –
9 | COc1ccc(CC(=O)O)cc1OC [compound 629] | 1.05 | 2.48 | 0.85 | – | – | – | –
10 | Cc1c(C(=O)O)c(O)cc2c1C(=O)c1c(O)c([C@@H]3O[C@H](CO)[C@@H](O)[C@H](O)[C@H]3O)c(O)c(O)c1C2=O [compound 1770] | – | – | – | 10.00 | 0.57 | 0.54 | –
11 | CC(C)(C)c1ccc(Br)cc1 [compound 2001] | 0.74 | 1.12 | 3.11 | – | – | – | –
12 | CCOC(=O)N1C(=O)c2ccccc2C1=O [compound 237] | 0.06 | 0.62 | 4.77 | – | – | – | –
13 | ClCc1ccc(Cl)cc1 [compound 2129] | 0.75 | 0.95 | 3.23 | – | – | – | –
14 | Nc1nc(=O)n([C@H]2C[C@H](O)[C@@H](CO)O2)cc1Br [compound 542] | 1.08 | 1.26 | 6.28 | – | – | – | –
15 | O=C(O)c1ccc2c3c(ncnc13)-c1ccccc1C2=O [compound 378] | 0.26 | 0.59 | 4.12 | – | – | – | –
16 | CN(C)c1ccc(C(=N)c2ccc(N(C)C)cc2)cc1 [compound 183] | – | – | – | 4.00 | 0.70 | 0.72 | –
17 | Cc1c(C2(c3cc(Br)c(O)c(Br)c3C)OS(=O)(=O)c3ccccc32)cc(Br)c(O)c1Br [compound 1251] | 15.19 | 0.33 | 0.14 | – | – | – | –
18 | N[C@@H](CCCCNC(=O)OCc1ccccc1)C(=O)O [compound 1747] | 6.16 | 0.86 | 0.78 | – | – | – | –
19 | CCCCCCCCCCCCCCCC(=O)OCC(COC(=O)CCCCCCCCCCCCCCC)OC(=O)CCCCCCCCCCCCCCC [compound 856] | 6.49 | 0.42 | 0.28 | – | – | – | –

Row | Compound | FOLD INDUCTION RELATIVE TO SOLVENT CONTROL, hGH [1] [fold] | FOLD INDUCTION RELATIVE TO SOLVENT CONTROL, MMTV (MMTV (M10) promoter) [fold] | FOLD INDUCTION RELATIVE TO SOLVENT CONTROL, GCSF [2] [fold] | FOLD INHIBITION RELATIVE TO SOLVENT CONTROL, hGH [1] [fold] | FOLD INHIBITION RELATIVE TO SOLVENT CONTROL, MMTV (MMTV (M10) promoter) [fold] | FOLD INHIBITION RELATIVE TO SOLVENT CONTROL, GCSF [2] [fold] | scored as positive in repeat assays, G-CSF [2]
20 | Cc1ccc(P(CCP(c2ccc(C)cc2)c2ccc(C)cc2)c2ccc(C)cc2)cc1 [compound 1591] | – | – | – | 5.55 | 0.96 | 0.56 | –
21 | CC(=O)N(C)c1ccc(N)cc1 [Chemical #1374, 4'-Amino-N-methylacetanilide] | 0.05 | 1.05 | 11.03 | – | – | – | scored as positives in every single one of these assays
22 | Nc1nc(-c2ccccc2)cs1 [compound 1499] | 5.55 | 0.61 | 0.24 | – | – | – | –
23 | O=C(c1ccccc1)c1ccc(Br)cc1 [compound 1705] | – | – | – | 14.28 | 0.62 | 0.54 | –
24 | Nc1c(O)c(S(=O)(=O)O)c(O)c2c1C(=O)c1ccccc1C2=O [compound 640] | – | – | – | 5.00 | 0.59 | 0.64 | –
25 | CC(C=O)=CC=CC(C)=CC=CC=C(C)C=CC=C(C)C=CC1=C(C)CCCC1(C)C [compound 519] | 0.68 | 2.76 | 1.15 | – | – | – | –
26 | O=c1ccc2[n+]([O-])c3ccc(O)cc3oc-2c1 [compound 427] | 0.43 | 0.71 | 3.14 | – | – | – | –
27 | Clc1ccc(Sc2cc(Cl)c(Cl)cc2Cl)cc1 [compound 828] | 1.34 | 2.20 | 1.47 | – | – | – | –
28 | CN(C)c1ccc(C(=C2C=CC(=[N+](C)C)C=C2)c2ccc(N(C)C)cc2)cc1 [Chemical #1780, Crystal Violet] | 0.38 | 1.15 | 20.39 | – | – | – | scored as positives in every single one of these assays
29 | Brc1ccc2c3c(cccc13)CC2 [compound 1573] | 0.34 | 4.30 | 1.49 | – | – | – | –
30 | O=NN(O)c1ccccc1 [Chemical #1783, Cupferron] | 0.32 | 0.89 | 6.55 | – | – | – | scored as positive only in half of the 48 repeat assays
31 | CN(C)c1ccc(C(=C2C=CC(=[N+](C)C)C=C2)c2ccc([N+](C)(C)C)cc2)cc1 [compound 670] | 0.52 | 0.79 | > 3 | – | – | – | –
32 | COc1c(F)cc(Br)cc1[N+](=O)[O-] [compound 2030] | 0.67 | 0.87 | 5.53 | – | – | – | –
33 | O=C(O)C1CCC1 [compound 1804] | 9.41 | 0.49 | 1.05 | – | – | – | –
34 | Cc1cc(C)nc(NS(=O)(=O)c2ccc(N)cc2)n1 [compound 443] | – | – | – | 4.76 | 0.79 | 0.60 | –
35 | CCOC(=O)c1c[nH]c(=S)[nH]c1=O [compound 1740] | 17.77 | 0.87 | 0.74 | – | – | – | –
36 | Nc1ccc2c(c1)C(=O)c1ccccc1-2 [compound 1318] | 0.85 | 2.41 | 1.13 | – | – | – | –
37 | Nc1ccccc1SSc1ccccc1N [compound 1482] | 0.54 | 1.07 | 3.99 | – | – | – | –
38 | CC1(C)O[C@@H]2C[C@H]3[C@@H]4CCC5=CC(=O)C=C[C@]5(C)[C@@]4(F)[C@@H](O)C[C@]3(C)[C@]2(C(=O)CO)O1 [compound 848] | 1.28 | 2.43 | 0.75 | – | – | – | –
